Reference: ChEMBL document CHEMBL5550112, “Development of a fluorescent ligand that can illuminate nuclear G-quadruplexes and modulate oncogene expression” (Bioorg Med Chem, 2024)
Active and inactive are the calls of the source. The calls are words filed in the database; no cut-off is given here.

What was measured:
[1] = system: Quadruplex DNA; assay: Binding affinity to Parallel EAD G-quadruplex DNA (unknown origin) assessed as increase in fluorescence intensity at 5 uM by fluorescence spectrophotometric analysis; assay type: nucleic-acid assay
[2] = system: DNA; assay: Binding affinity to Duplex DNA (unknown origin) assessed as fluorescence quantum yield by fluorescence spectrophotometric analysis; assay type: nucleic-acid assay
[3] = system: MDA-MB-231; assay: Inhibition of cell migration in human MDA-MB-231 cells at 10 to 20 uM incubated for 24 hrs by reverse-phase microscopy based scratch wound healing assay; assay type: functional; conditions: dose 10-20 µM
[4] = system: Quadruplex DNA; assay: Binding affinity to Antiparallel HRAS G-quadruplex DNA (unknown origin) assessed as increase in fluorescence intensity at 5 uM by fluorescence spectrophotometric analysis; assay type: nucleic-acid assay
[5] = system: Quadruplex DNA; assay: Binding affinity to Parallel VAV1 G-quadruplex DNA (unknown origin) assessed as increase in fluorescence intensity at 5 uM by fluorescence spectrophotometric analysis; assay type: nucleic-acid assay
[6] = system: Quadruplex DNA; assay: Binding affinity to KRAS G-quadruplex DNA (unknown origin) assessed as decrease in absorption band by measuring red shift at 5 uM by absorption spectra analysis; assay type: nucleic-acid assay
[7] = system: MDA-MB-231; assay: Induction of cell cycle arrest in human MDA-MB-231 cells assessed as accumulation of cells at G2-M phase at 20 uM incubated for 24 hrs by flow cytometry (reference value: 16.8 %); assay type: functional
[8] = system: Quadruplex DNA; assay: Binding affinity to Parallel c-MYC G-quadruplex DNA (unknown origin) assessed as increase in fluorescence intensity at 5 uM by fluorescence spectrophotometric analysis; assay type: nucleic-acid assay
[9] = system: MDA-MB-231; assay: Antiproliferative activity against human MDA-MB-231 cells assessed as inhibition of cell growth incubated for 24 hrs by CCK-8 assay; assay type: functional, cell-based; conditions: MDA-MB-231, 24 h
[10] = system: DNA; assay: Binding affinity to Duplex DNA (unknown origin) assessed as increase in fluorescence by measuring red shift at 5 uM by fluorescence titration spectra analysis; assay type: nucleic-acid assay
[11] = target: Quadruplex DNA; assay: Binding affinity to 3'-Cy5-labelled c-MYC G-quadruplex DNA (unknown origin) assessed as dissociation constant by fluorescence quenching analysis; assay type: nucleic-acid assay
[12] = system: Quadruplex DNA; assay: Binding affinity to Parallel CHL1 G-quadruplex DNA (unknown origin) assessed as increase in fluorescence intensity at 5 uM by fluorescence spectrophotometric analysis; assay type: nucleic-acid assay
[13] = system: Quadruplex DNA; assay: Binding affinity to Parallel c-KIT1 G-quadruplex DNA (unknown origin) assessed as increase in fluorescence intensity at 5 uM by fluorescence spectrophotometric analysis; assay type: nucleic-acid assay
[14] = system: Quadruplex DNA; assay: Binding affinity to KRAS G-quadruplex DNA (unknown origin) assessed as increase in fluorescence by measuring red shift at 5 uM by fluorescence titration spectra analysis; assay type: nucleic-acid assay
[15] = system: Quadruplex DNA; assay: Binding affinity to c-MYC G-quadruplex DNA (unknown origin) assessed as decrease in absorption band by measuring red shift at 5 uM by absorption spectra analysis; assay type: nucleic-acid assay
[16] = system: Quadruplex DNA; assay: Binding affinity to c-MYC G-quadruplex DNA (unknown origin) assessed as increase in fluorescence by measuring red shift at 5 uM by fluorescence titration spectra analysis; assay type: nucleic-acid assay
[17] = target: DNA; assay: Binding affinity to Duplex DNA (unknown origin) assessed as dissociation constant by fluorescence spectrophotometric analysis; assay type: nucleic-acid assay
[18] = system: MDA-MB-231; assay: Induction of cell cycle arrest in human MDA-MB-231 cells assessed as accumulation of cells at sub-G1 phase at 15 uM incubated for 24 hrs by flow cytometry (reference value: 0.6 %); assay type: functional
[19] = system: MDA-MB-231; assay: Induction of cell cycle arrest in human MDA-MB-231 cells assessed as accumulation of cells at G0-G1 phase at 20 uM incubated for 24 hrs by flow cytometry (reference value: 69.6 %); assay type: functional
[20] = system: MDA-MB-231; assay: Induction of cell cycle arrest in human MDA-MB-231 cells assessed as accumulation of cells at sub-G1 phase at 20 uM incubated for 24 hrs by flow cytometry (reference value: 0.6 %); assay type: functional
[21] = system: MDA-MB-231; assay: Induction of cell cycle arrest in human MDA-MB-231 cells assessed as accumulation of cells at G2-M phase at 10 uM incubated for 24 hrs by flow cytometry (reference value: 16.8 %); assay type: functional
[22] = system: Quadruplex DNA; assay: Binding affinity to Antiparallel Bm G-quadruplex DNA (unknown origin) assessed as increase in fluorescence intensity at 5 uM by fluorescence spectrophotometric analysis; assay type: nucleic-acid assay
[23] = system: Calf thymus DNA; assay: Binding affinity to calf thymus DNA (unknown origin) assessed as increase in fluorescence intensity at 5 uM by fluorescence spectrophotometric analysis; conditions: Bos taurus
[24] = system: Quadruplex DNA; assay: Binding affinity to G-quadruplex DNA in human MDA-MB-231 cells at 2 uM incubated for 30 mins by Hoechst 33342 staining based confocal microscopic analysis; assay type: cell-based
[25] = system: MDA-MB-231; assay: Induction of cell cycle arrest in human MDA-MB-231 cells assessed as accumulation of cells at S phase at 10 uM incubated for 24 hrs by flow cytometry (reference value: 13 %); assay type: functional
[26] = system: Quadruplex DNA; assay: Binding affinity to Parallel PS2M G-quadruplex DNA (unknown origin) assessed as increase in fluorescence intensity at 5 uM by fluorescence spectrophotometric analysis; assay type: nucleic-acid assay
[27] = system: HEK-293T; assay: Effect on KRAS gene expression in human HEK293T cells co-transfected with KRAS promoter luciferase reporter assessed as decrease in KRAS expression by measuring reduction in firefly luciferase expression at 10 to 20 uM incubated for 24 hrs by firefly luciferase based microplate analysis; assay type: functional, cell-based; conditions: dose 10-20 µM
[28] = system: Quadruplex DNA; assay: Binding affinity to c-MYC G-quadruplex DNA (unknown origin) assessed as imino proton signal by NMR spectral analysis; assay type: nucleic-acid assay
[29] = system: MDA-MB-231; assay: Induction of apoptosis in human MDA-MB-231 cells assessed as downregulation of KRAS protein expression at 10 to 20 uM incubated for 24 hrs by Western blot analysis; assay type: functional, cell-based; conditions: dose 10-20 µM
[30] = system: MDA-MB-231; assay: Induction of apoptosis in human MDA-MB-231 cells assessed as […] protein expression at 10 to 20 uM incubated for 24 hrs by Western blot analysis; assay type: functional, cell-based; conditions: dose 10-20 µM
[31] = system: Quadruplex DNA; assay: Binding affinity to KRAS G-quadruplex DNA (unknown origin) assessed as fluorescence quantum yield by fluorescence spectrophotometric analysis; assay type: nucleic-acid assay
[32] = system: Quadruplex DNA; assay: Binding affinity to Parallel BCL2 G-quadruplex DNA (unknown origin) assessed as increase in fluorescence intensity at 5 uM by fluorescence spectrophotometric analysis; assay type: nucleic-acid assay
[33] = system: Quadruplex DNA; assay: Binding affinity to Antiparallel TBA G-quadruplex DNA (unknown origin) assessed as increase in fluorescence intensity at 5 uM by fluorescence spectrophotometric analysis; assay type: nucleic-acid assay
[34] = target: Quadruplex DNA; assay: Binding affinity to KRAS G-quadruplex DNA (unknown origin) assessed as dissociation constant by fluorescence spectrophotometric analysis; assay type: nucleic-acid assay
[35] = system: Quadruplex DNA; assay: Binding affinity to G-quadruplex DNA in human MDA-MB-231 cells assessed as increase in fluorescence at 2 uM incubated for 30 mins in presence of dimethyl sulfate by Hoechst 33342 staining based confocal microscopic analysis; assay type: cell-based
[36] = system: MDA-MB-231; assay: Induction of cell cycle arrest in human MDA-MB-231 cells assessed as accumulation of cells at S phase at 15 uM incubated for 24 hrs by flow cytometry (reference value: 13 %); assay type: functional
[37] = system: DNA; assay: Binding affinity to Duplex DNA (unknown origin) assessed as increase in fluorescence intensity at 5 uM by fluorescence spectrophotometric analysis; assay type: nucleic-acid assay
[38] = system: MDA-MB-231; assay: Antiproliferative activity against human MDA-MB-231 cells cultured as 3D tumor spheroids assessed as inhibition of tumor volume incubated for 7 days; assay type: functional, cell-based; conditions: time 7.0 day

For CCn1c2ccccc2c2cc(/C=C/c3sc4ccccc4[n+]3C)ccc21.[I-], the Activity [1] was “Active”, the Activity [2] was 0.03 and the inhibition [3] was “Active”. The Activity [4] was “Active”, the Activity [5] was “Active” and the Activity [6] was “Active”. The Activity [7] was 6.4%, the Activity [8] was “Active” and the IC50 [9] was 13.3 µM. The Activity [10] was “Active”, the Kd [11] was 1 µM and the Activity [12] was “Active”. For the same molecule, the Activity [13] was “Active”, the Activity [14] was “Active” and the Activity [15] was “Active”. The Activity [16] was “Active”, the Kd [17] was 5.3 µM and the Activity [18] was 32.3%. The Activity [19] was 28.3%, the Activity [20] was 56.7% and the Activity [21] was 16%. The Activity [22] was “Active”, the Activity [23] was “Active” and the Activity [24] was “Active”. For the same molecule, the Activity [25] was 14.5%, the Activity [26] was “Active” and the Activity [27] was “Active”. For the same molecule, the Activity [28] was “Active”, the Activity [29] was “Active” and the Activity [30] was “Active”. The Activity [31] was 0.19, the Activity [32] was “Active” and the Activity [33] was “Active”. The Kd [34] was 0.5 µM, the Activity [35] was “inactive” and the Activity [36] was 10.2%. For the same molecule, the Activity [37] was “inactive” and the Activity [38] was “Dose-Dependent Effect”.
